From patent publication US8642657B2 (Gruenenthal GmbH, priority 2003, dated 2014) come the findings set out here.

Data set [1] addresses T1, rat VR1 (Rattus norvegicus, UniProt O35433).
T1 construct: expressed in transfected cells
Put plainly: [3H]resiniferatoxin (RTX) competition binding assay, VR1-transfected CHO cells. The procedure:
The pUHG102 VR1 plasmid was transfected into CHO cells containing the pTet Off regulatory plasmid (Clontech). In these cells, expression of the VR1 is repressed in the presence of tetracycline but is induced upon removal of the antibiotic. Stable clones were isolated in culture medium containing puromycin (10 μg/mL) and maintained in HAM F12 medium supplemented with tetracycline (1 μg/mL), 5 μg/ml geniticin, 25 mM HEPES, 10% FBS. Cells utilized for assays were grown in culture medium without antibiotic for 48 h before use. Cells were seeded in T75 cell culture flasks in media without antibiotics and grown to approximately 90% confluence. The flasks were then washed with PBS and harvested in 0.25% trypsin, 1 mM EDTA. The cells were pelleted by gentle centrifugation and stored at −20° C. until assay.
Competition Binding Assay
Binding studies with [^3H]resiniferatoxin (RTX) were carried out as described previously with minor modifications (Szallasi et al., 1992). Binding assay mixtures were set up on ice and contained 50-100 pM [^3H]RTX, various concentrations of competing ligands, 0.25 mg/mL BSA (Cohn fraction V), and about 5×10^5 VR1-transfected cells. The final volume was adjusted to 350 μL with DPBS with Ca^2+ and Mg^2+ and 0.25 mg/mL bovine serum albumin. Non-specific binding was determined in the presence of 100 nM nonradioactive RTX. The binding reaction was initiated by transferring the assay mixtures to a 37° C. water bath and was terminated after a 60 min incubation period by cooling the tubes on ice. To reduce non-specific binding, 200 μg/ml α-glycoprotein was added. Membrane-bound RTX was then separated from the free by pelleting the membranes in a Beckman 12 benchtop centrifuge (15 min, maximal velocity), the tips of the tubes containing the pellets were cut off, and the radioactivity was determined by scintillation counting. Equilibrium binding parameters (Ki and cooperativity) were determined by fitting the Hill equation to the measured values with the aid of the program MicroCal Origin 6.0.
(§1) Initial stocks were dissolved in DMSO. For the binding assays, compounds were diluted in with DPBS with Ca^2+ and Mg^2+ and 0.25 mg/mL bovine serum albumin. For the calcium uptake assays, compounds were diluted in DMEM with 0.25 mg/mL bovine serum albumin.

The target of data set [2] is T1, rat VR1. Put plainly: 45Ca2+-uptake assay in CHO/VR1 cells, antagonism of capsaicin-stimulated uptake. In kind it is cell-based. To be noted: 45Ca2+ uptake stimulated by 50 nM capsaicin. How it is done:
as §1
Molecules were characterized to determine whether they were full agonists, partial agonists, or antagonists. For studies of ^45Ca^2+ uptake by CHO/VR1 cells (Tet-off cells), the cells were plated in 24-well plates to yield a cell density 20-40% of that required to produce confluence. The next day the medium was changed to remove the tetracycline and induce VR1 expression. Experiments were performed approximately 36-40 hours after induction. For ^45Ca^2+ uptake assay, cells were incubated for 5 min at 37° C. in a total volume of 400 μL of serum free DMEM (containing 1.8 mM CaCl2) in the presence of 0.25 mg/mL BSA (Sigma), 1 μCi/mL ^45Ca^2+ (5-30 Ci/g from ICN, CA), and increasing concentrations of the compound to be tested. Immediately after the incubation, extracellular ^45Ca^2+ was removed by washing the cells three times with cold DPBS (containing 1.8 mM CaCl2). Then 400 μl RIPA buffer (50 mM Tris pH 7.4; 150 mM NaCl; 1% Triton X-100; 0.1% SDS; 1% sodium deoxycholate) was added to each well in order to lyse the cells. Plates were shaken slowly for 20 min; then 306 μL of cell lysate was transferred from each well into a scintillation vial and radioactivity was determined by scintillation counting. For each data point in each experiment, four wells were assayed. Data from these experiments were analyzed by computer fit to the Hill equation. At least 3 separate experiments were carried out for each compound. In order to determine antagonist activity, studies were performed in exactly the same fashion with the exception that 50 nM capsaicin was added to the assay mixture to stimulate ^45Ca^2+ uptake.

Setting [3] is: competition with [3H]RTX, rat VR1 in CHO cells, read-out: Ki (nM) Binding Affinity.

T1 sequence (O35433 whole entry): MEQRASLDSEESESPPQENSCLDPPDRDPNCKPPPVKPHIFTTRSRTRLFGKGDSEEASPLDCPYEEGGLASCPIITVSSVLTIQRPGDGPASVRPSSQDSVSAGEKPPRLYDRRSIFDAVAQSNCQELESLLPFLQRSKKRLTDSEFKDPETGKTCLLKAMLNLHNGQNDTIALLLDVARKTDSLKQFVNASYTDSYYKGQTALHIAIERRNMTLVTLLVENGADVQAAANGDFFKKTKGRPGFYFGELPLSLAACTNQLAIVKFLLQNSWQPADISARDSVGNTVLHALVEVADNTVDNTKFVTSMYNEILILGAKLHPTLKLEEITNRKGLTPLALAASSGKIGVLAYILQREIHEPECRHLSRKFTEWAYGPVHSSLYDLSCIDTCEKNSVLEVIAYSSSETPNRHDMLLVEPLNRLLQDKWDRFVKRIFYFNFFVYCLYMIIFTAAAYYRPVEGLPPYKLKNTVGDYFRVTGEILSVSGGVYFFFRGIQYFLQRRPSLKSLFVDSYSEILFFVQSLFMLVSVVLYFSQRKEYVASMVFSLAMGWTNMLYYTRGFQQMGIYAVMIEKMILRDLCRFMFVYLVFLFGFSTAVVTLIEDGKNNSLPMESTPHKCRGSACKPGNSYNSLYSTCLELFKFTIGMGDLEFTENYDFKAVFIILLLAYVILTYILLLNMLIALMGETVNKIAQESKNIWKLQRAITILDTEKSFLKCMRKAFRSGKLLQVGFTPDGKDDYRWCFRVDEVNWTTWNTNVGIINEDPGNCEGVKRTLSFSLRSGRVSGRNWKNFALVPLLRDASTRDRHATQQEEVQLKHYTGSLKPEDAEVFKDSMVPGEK

A word on the Ki: it is a dissociation constant, usually derived from enzyme kinetics or from competition with a known ligand. As a reminder, the melting point is the temperature, or range, at which the solid turns liquid. `CC(C(=O)NCc1ccc(C(C)(C)C)cc1)c1ccc(NS(C)(=O)=O)c(F)c1` (centres unmarked) [1-51, N-(4-tert-Butylbenzyl)-2-[3-fluoro-4-(methylsulfonylamino)phenyl]propionamide] gave a melting point of 52 to 54 °C. Moreover, the affinity on rat VR1 [1], expressed as Ki, was 58.4 nM. Moreover, the Ki on rat VR1 [2] stood at 5.47 nM.
Regarding `CC(C(=O)NCc1ccc(C(C)(C)C)cc1)c1ccc(NS(C)(=O)=O)c(Cl)c1` (centres unmarked) [1-52, N-(4-tert-Butylbenzyl)-2-[3-chloro-4-(methylsulfonylamino)phenyl]propionamide], the melting point lay within 126 to 129 °C. At rat VR1 [1] (setting [3]), the Ki came to 30.7 nM. For the same compound, the affinity on rat VR1 [2], expressed as Ki, was 29.5 nM.
The matching figures for `CC(C(=O)NCc1ccc(C(C)(C)C)cc1)c1ccc(NS(C)(=O)=O)c(Br)c1` (centres unmarked) [1-53, N-(4-tert-Butylbenzyl)-2-[3-bromo-4-(methylsulfonylamino)phenyl]propionamide]: 66 to 67 °C, 7.41 nM and 24.9 nM.
The matching figures for `CC(C(=O)NCc1ccc(C(C)(C)C)cc1)c1ccc(NS(C)(=O)=O)c(I)c1` (centres unmarked) [1-54, N-(4-tert-Butylbenzyl)-2-[3-iodo-4-(methylsulfonylamino)phenyl]propionamide]: 71 °C, 23.3 nM and 29.9 nM.
The matching figures for `CC(C(=O)NCc1ccc(C(C)(C)C)cc1)c1cc(F)c(NS(C)(=O)=O)c(F)c1` (centres unmarked) [1-55, N-(4-tert-Butylbenzyl)-2-[3,5-difluoro-4-(methylsulfonylamino)phenyl]propionamide]: 80 to 81 °C, 19.9 nM and 7.38 nM.
The compound `CC(C(=O)NCc1ccc(C(C)(C)C)cc1)c1ccc(NS(C)(=O)=O)c(C#N)c1` (centres unmarked) [1-56, N-(4-tert-Butylbenzyl)-2-[3-cyano-4-(methylsulfonylamino)phenyl]propionamide] returned a melting point of 102 to 105 °C. Moreover, at rat VR1 [1] (setting [3]), the Ki stood at 344 nM. Also, the Ki on rat VR1 [2] amounted to 467 nM.
The matching figures for `COC(=O)c1cc(C(C)C(=O)NCc2ccc(C(C)(C)C)cc2)ccc1NS(C)(=O)=O` (centres unmarked) [1-59, N-(4-tert-Butylbenzyl)-2-[3-(methoxycarbonyl)-4-(methylsulfonylamino)phenyl]propionamide]: 142 to 144 °C, 1610 nM and 951 nM.
Consider `C[C@H](C(=O)NCc1ccc(C(C)(C)C)cc1)c1ccc(NS(C)(=O)=O)c(F)c1` [3-5, N-(4-tert-Butylbenzyl)-(2S)-2-[3-fluoro-4-(methylsulfonylamino)phenyl]propionamide], for which the Ki on rat VR1 [1] came out at 43.9 nM; on rat VR1 [2] it was 6.87 nM.
On to `C[C@@H](C(=O)NCc1ccc(C(C)(C)C)cc1)c1ccc(NS(C)(=O)=O)c(F)c1` [3-6, N-(4-tert-Butylbenzyl)-(2R)-2-[3-fluoro-4-(methylsulfonylamino)phenyl]propionamide], for which the Ki was 458 nM at rat VR1 [1] and 102 nM on rat VR1 [2].
For the compound `Cc1ccc(CCCNC(=O)[C@H](C)c2ccc(NS(C)(=O)=O)c(F)c2)cc1C` [4-16, N-[3-(3,4-Dimethylphenyl)propyl]-(2R)-2-[3-fluoro-4-(methylsulfonylamino)phenyl]propionamide], the values for the Ki on rat VR1 [1] (setting [3]) and on rat VR1 [2] were 944 nM and 204 nM, respectively.
With `Cc1ccc(CCCNC(=O)[C@@H](C)c2ccc(NS(C)(=O)=O)c(F)c2)cc1C` [4-17, N-[3-(3,4-Dimethylphenyl)propyl]-(2S)-2-[3-fluoro-4-(methylsulfonylamino)phenyl]propionamide], the Ki on rat VR1 [1] turned out to be 236 nM; at rat VR1 [2] it was 33.7 nM.
Take `C[C@H](C(=O)NC[C@@H](COC(=O)C(C)(C)C)Cc1ccccc1)c1ccc(NS(C)(=O)=O)c(F)c1` [6-6, N-[(2S)-2-Benzyl-3-(pivaloyloxy)propyl]-(2S)-2-[3-fluoro-4-(methylsulfonylamino)phenyl]propionamide]: the Ki was found to be 20.3 nM on rat VR1 [1] (setting [3]) and 10 nM at rat VR1 [2].
Consider `C[C@@H](C(=O)NC[C@@H](COC(=O)C(C)(C)C)Cc1ccccc1)c1ccc(NS(C)(=O)=O)c(F)c1` [6-7, N-[(2S)-2-Benzyl-3-(pivaloyloxy)propyl]-(2R)-2-[3-fluoro-4-(methylsulfonylamino)phenyl]propionamide], for which the Ki was determined as 372 nM on rat VR1 [1] (setting [3]) and 205 nM on rat VR1 [2].
In the case of `C[C@@H](C(=O)NC[C@H](COC(=O)C(C)(C)C)Cc1ccccc1)c1ccc(NS(C)(=O)=O)c(F)c1` [6-8, N-[(2R)-2-Benzyl-3-(pivaloyloxy)propyl]-(2R)-2-[3-fluoro-4-(methylsulfonylamino)phenyl]propionamide], the figures for the Ki on rat VR1 [1] (setting [3]) and at rat VR1 [2] were 297 nM and 98.3 nM, respectively.
Regarding `C[C@@H](NC(=S)NCc1ccc(C(C)(C)C)cc1)c1ccc(NS(C)(=O)=O)cc1` [16-5, N-(4-t-Butylbenzyl)-N′-{(1R)-1-[4-(methylsulfonylamino)phenyl]ethyl}thiourea], the Ki on rat VR1 [1] (setting [3]) is 40.8 nM; at rat VR1 [2], 4.52 nM.
As for `C[C@@H](NC(=S)NCc1ccc(C(C)(C)C)cc1)c1ccc(NS(C)(=O)=O)c(F)c1` [17-7, (R)—N-(4-t-Butylbenzyl)-N′-{1-[3-fluoro-4-(methylsulfonylamino)phenyl]ethyl}thiourea], the Ki at rat VR1 [1] came out at 32.8 nM; at rat VR1 [2], 39.4 nM.
`C[C@H](NC(=S)NCc1ccc(C(C)(C)C)cc1)c1ccc(NS(C)(=O)=O)c(F)c1` [17-8, (S)—N-(4-t-Butylbenzyl)-N′-{1-[3-fluoro-4-(methylsulfonylamino)phenyl]ethyl}thiourea]: the values for the Ki at rat VR1 [1] and at rat VR1 [2] were 2580 nM and 4310 nM, respectively.
In the same order, the values of `Cc1ccc(CC(CNC(=S)N[C@H](C)c2ccc(NS(C)(=O)=O)cc2)COC(=O)C(C)(C)C)cc1C` (stereo partly drawn) [18-6, N-[2-(3,4-Dimethylbenzyl)-3-(pivaloyloxy)propyl]-N′-{(1R)-1-[4-(methylsulfonylamino)phenyl]ethyl}thiourea] are 6.1 nM and 6.86 nM.
Take `Cc1ccc(C[C@H](CNC(=S)N[C@H](C)c2ccc(NS(C)(=O)=O)cc2)COC(=O)C(C)(C)C)cc1C` [18-7, N-[(2R)-2-(3,4-Dimethylbenzyl)-3-(pivaloyloxy)propyl]-N′-{(1R)-1-[4-(methylsulfonylamino)phenyl]ethyl}thiourea]: the Ki was found to be 15.2 nM on rat VR1 [1] and 7.14 nM on rat VR1 [2].
As to `C[C@@H](NC(=S)N[C@H](COC(=O)C(C)(C)C)Cc1ccccc1)c1ccc(NS(C)(=O)=O)cc1` [19-14, N-[(2S)-3-phenyl-1-pivaloyloxy-2-propyl]-N′-[(R)-α-methyl-4-(methylsulfonylamino)benzy]thiourea], the Ki was determined as 272 nM on rat VR1 [1] and 290 nM on rat VR1 [2].
As for `Cc1ccc(CCC(=O)NC(C)c2ccc(NS(C)(=O)=O)c(F)c2)cc1C` (centres unmarked) [24-4, N-{1-[3-Fluoro-4-(methylsulfonylamino)phenyl]ethyl}-3-(3,4-dimethylphenyl)propanamide], the melting point was in the range of 176 to 177 °C. Also, the affinity on rat VR1 [2] corresponds to a Ki of 4130 nM.
In the case of `Oc1cc2c(cc1O)CN(C(=S)NCCc1ccc(Cl)cc1)CCC2` [capsazepine, reference compound], the Ki at rat VR1 [1] (setting [3]) came to 1300 nM; at rat VR1 [2] it was 520 nM.
Regarding “N-(4-t-Butylbenzyl)-N-{1-[4-(methylsulfonylamino)phenyl]ethyl}thiourea [15-1]”, the Ki was 59.3 nM at rat VR1 [1] (setting [3]) and 14.7 nM at rat VR1 [2].
